Holding throughout (assay type): cell-based
The test system of one experiment is NCI-H82. Conditions: 72 h. On the procedure: NCI-H82, epithelial (small cell lung cancer, SCLC), ATCC-CRL-5811;
(§1) Cell line MCF-7 was cultured in incubator under CO2 (6%) at 37° C. in DMEM high glucose (Dulbecco's Modified Eagle Solution, Gibco-BRL 31966-21) medium with 10% fetal bovine serum inactivated (FBS) (Gibco-BRL 10106-169). Cell lines HL-60, NCI-H524, NCI-H526, NCI-H69, NCI-H82, NCI-H187 and H5B were cultured in an incubator at 37° C. in RPMI-1640 (Sigma R8758) medium with 10% of fetal bovine serum inactivated (FBS) and 2 mM glutamine (Sigma G7513). Cell line NCI-H510A was cultured in incubator in F12K medium with 10% of fetal bovine serum inactivated (FBS). Cell line GBM-18 and GBM-27 were cultured in incubator under CO2 (6%) at 37° C. in complete medium (Neurobasal+B27+Glutamax+Growth factors).
(§2) During the amplification step and the assays, adherent cells were rinsed with DPBS (Dulbecco's Phosphate Buffered Saline, Sigma D1283) three times and afterward treated for 5 minutes with trypsin ([…]) (Gibco-BRL, 15400054) in solution of DPBS at 37° C., and, once detached, transferred in the culturing medium. No-adherent cells were centrifuged and transferred in the culturing medium. Cells were counted in a Neubauer chamber after labelling with Tripan-Blue.
(§3) MCF-7, NCI-H187, NCI-H69, NCI-H526 and H5B cells were seeded at a density of 5000 cells/well; NCI-H524 and NCI-H82 were seeded at a density of 2500 cells/well; HL-60 and NCI-H510A at 10000 cells/well in 100 μl of medium in 96 well plates. After 24 h, the compounds to be tested were added to calculate the dose/response curve at the starting concentration of 100 μM with serial dilutions (1:1). Controls were the untreated cells. Each experiment was performed in triplicate.
(§4) Cells were incubated during 72 h in incubator under CO2 atmosphere at 37° C. Cell viability was measured by means of MTT (3-(4,5-dimethylthiazol-2-yl)-2,5-diphenyltetrazolium bromide) assay, Alamar Blue® (Biosource DAL1100) and Hexosaminidase activity test, consecutively, following manufacturer instructions.
(§5) MTT: 1. Stock solution of MTT (475989 Calbiochem) was 5 mg/ml in PBS 1×. As negative control (experiment noise) 3 wells were treated with 20 μl/well of a solution of SDS 10% in H2O. The same control was used for Alamar Blue/Hexosaminidase. 10 μl/well of MTT solution were added and the plate was incubated for 3-4 hr. The medium was discarded and 100 μl of extracting buffer (PBS 1×, 15% SDS, 50% […] N,N-Dimethylformamide, pH 4,7) were added to each well. Plates were incubated for 16 h at room temperature under orbital shaking. Absorbance at 570 nm was finally measured.
(§6) Alamar Blue: 10 μl Alamar Blue solution was added to each well and the plates were incubated for […] in the incubator. Fluorescence ratio at 535/590 (excitation/emission) was measured in Cytofluor (Millipore) fluorimeter. Blank control was determined by lysis of untreated cells with con 2% of Triton X100, right before adding Alamar Blue solution.
(§7) Hexosaminidase activity test: after Alamar Blue lecture, medium was discarded and plates were rinsed once with PBS. 60 μl hexosaminidase substrate (p-nitrophenol-N-acetyl-beta-D-glucosamide 7.5 mM [Sigma N-9376], sodium citrate 0.1 M, pH 5.0, 0.25% Triton X-100) was added to each well and the plates were incubated at 37° C. for 2-5 h, according to the cell type (hexosaminidase activity changes according to the cell type). […] Blank control was the same as described before.
(§8) Data analysis was performed calculating the percentage of cell viability normalized vs. the values of negative control, which was considered equal to 100%. The dose/response curve was fitted through the sigmoidal equation dose-response (variable slope) and the EC50 values were calculated as follow: Y=Bottom+(Top−Bottom)/(1+10^{[(Log EC50−X)*HillSlope]},

Another experiment concerns cancer cell lines. Briefly: Inhibition of cancer cell proliferation, general statements. Here is the method: as §3, §4, §8
In the next experiment the test system is NCI-H187. Conditions: 72 h. On the procedure:
NCI-H187, epithelial (small cell lung cancer, SCLC), ATCC-CRL-5804;
as §1, §2, §3, §4, §5, §6, §7, §8

The subject of the next experiment is NCI-H510A. Conditions: 72 h. Here is the method: NCI-510A, epithelial (small cell lung cancer, SCLC), ATCC-HBT-124; and Hepatocytes (normal liver), from a donor was provided by Foundation DTI-Donation & Transplantation Institute from surgical wastes and from organs not suitable for transplantation
as §1, §2, §3, §4, §5, §6, §7, §8

Results on eight compounds are retold here after patent US11440939B2, “Anticancer peptides” (IDP DISCOVERY PHARMA, S.L., priority 2017, dated 2022).

The EC50 is the concentration that produces a half-maximal response. A higher EC50 goes with a less potent agent.

Structures are written as SMILES. Numbered stars: 1 amine (or outer) side, 2 acyl side, 3 side chain; on linkers, the order of the positions; unused ones are H or OH. Bridge positions count the residues as written; N and C are the ends. Square brackets hold non-standard residues; d marks the D form. Peptide text beside a SMILES is read from it. ξ: configuration not given here. ξαMeNle(6-ylidene) = CC(CCCC=[*:3])(N[*:1])C(=O)[*:2]; X1 = CC(CCCCCCC=[*:3])(N[*:1])C(=O)[*:2]; R8 = C=CCCCCCC[C@@](C)(N)C(=O)O; S5 = C=CCCC[C@](C)(N)C(=O)O

As for `CC(C)C[C@H](NC(=O)[C@H](CCCCN)NC(=O)[C@@H](NC(=O)[C@@H](N)CCCNC(=N)N)C(C)C)C(=O)N[C@H](C(=O)N[C@@H](CC(N)=O)C(=O)N[C@@H](CC(C)C)C(=O)NC1(C)CCCCCCC=CCCCC(C)(C(=O)N[C@H](C(=O)N[C@@H](Cc2ccccc2)C(N)=O)C(C)C)NC(=O)[C@H](CCC(=O)O)NC(=O)[C@H](CCCNC(=N)N)NC(=O)[C@H](CC(C)C)NC(=O)[C@H]([C@@H](C)O)NC(=O)[C@H](C)NC(=O)[C@H](Cc2ccccc2)NC1=O)C(C)C` (stereo partly drawn) [IDP-H14-F14] (H-RVKLVNL[X1]FATLRE[ξαMeNle(6-ylidene)]VF-NH2; staple 8-15; N-terminus and C-terminus assumed), the half-maximal effective concentration (EC50) with NCI-H82, with NCI-H187 and in the experiment with NCI-H510A was roughly 7.5 µM in each case. In addition, the “inhibition of cancer cell proliferation (in words)” value (shortened to “inhibition”) with cancer cell lines is recorded as “active”.

`CC(C)C[C@H](NC(=O)[C@H](CCCCN)NC(=O)[C@@H](NC(=O)[C@@H](N)CCCNC(=N)N)C(C)C)C(=O)N[C@H](C(=O)N[C@@H](CC(N)=O)C(=O)N[C@@H](CC(C)C)C(=O)NC1(C)CCCCCCC=CCCCC(C)(C(=O)N[C@H](C(=O)N[C@@H](CCC(N)=O)C(N)=O)C(C)C)NC(=O)[C@H](CCC(=O)O)NC(=O)[C@H](CCCNC(=N)N)NC(=O)[C@H](CC(C)C)NC(=O)[C@H]([C@@H](C)O)NC(=O)[C@H](C)NC(=O)[C@H](Cc2ccccc2)NC1=O)C(C)C` (stereo partly drawn) [IDP-H14-Q15] (H-RVKLVNL[X1]FATLRE[ξαMeNle(6-ylidene)]VQ-NH2; staple 8-15; N-terminus and C-terminus assumed): the half-maximal effective concentration (EC50) in the experiment on NCI-H82, in the experiment on NCI-H187 and in the experiment on NCI-H510A was roughly 7.5 µM each time. Further, in the experiment with cancer cell lines, the “inhibition” value is listed as “active”.

As for `CC(C)C[C@H](NC(=O)[C@H](CCCCN)NC(=O)[C@@H](NC(=O)[C@@H](N)CCCNC(=N)N)C(C)C)C(=O)N[C@H](C(=O)N[C@@H](CC(N)=O)C(=O)N[C@@H](CC(C)C)C(=O)N[C@]1(C)CCCCCCC=CCCC[C@@](C)(C(=O)N[C@H](C(=O)N2CCC[C@H]2C(N)=O)C(C)C)NC(=O)[C@H](CCC(=O)O)NC(=O)[C@H](CCCNC(=N)N)NC(=O)[C@H](CC(C)C)NC(=O)[C@H]([C@@H](C)O)NC(=O)[C@H](CCC(N)=O)NC(=O)[C@H](Cc2ccccc2)NC1=O)C(C)C` [IDP-H14-Q9] (H-RVKLVNL[R8]FQTLRE[S5]VP-NH2; staple 8-15; N-terminus assumed), the “inhibition” value in the experiment with cancer cell lines is listed as “active”. Moreover, the EC50 with NCI-H187 is roughly 12.5 µM.

As for `CC(C)C[C@H](NC(=O)[C@H](CCCCN)NC(=O)[C@@H](NC(=O)[C@@H](N)CCCNC(=N)N)C(C)C)C(=O)N[C@H](C(=O)N[C@@H](CC(N)=O)C(=O)N[C@@H](CC(C)C)C(=O)NC1(C)CCCCCCC=CCCCC(C)(C(=O)N[C@H](C(=O)N2CCC[C@H]2C(N)=O)C(C)C)NC(=O)[C@H](Cc2ccccc2)NC(=O)[C@H](CCCNC(=N)N)NC(=O)[C@H](CC(C)C)NC(=O)[C@H]([C@@H](C)O)NC(=O)[C@H](C)NC(=O)[C@H](Cc2ccccc2)NC1=O)C(C)C` (stereo partly drawn) [IDP-H14-F12] (H-RVKLVNL[X1]FATLRF[ξαMeNle(6-ylidene)]VP-NH2; staple 8-15; N-terminus and C-terminus assumed), the EC50 in the experiment on NCI-H82, in the experiment on NCI-H187 and in the experiment on NCI-H510A was roughly 7.5 µM each time. For the same compound, the “inhibition” value in the experiment with cancer cell lines was “active”.

`CC(C)C[C@@H]1NC(=O)[C@H](C)NC(=O)[C@H](CCC(N)=O)NC(=O)[C@H](Cc2ccccc2)NC(=O)C(C)(NC(=O)[C@H](CC(C)C)NC(=O)[C@H](CC(N)=O)NC(=O)[C@@H](NC(=O)[C@H](CC(C)C)NC(=O)[C@H](CCCCN)NC(=O)[C@@H](NC(=O)[C@@H](N)CCCNC(=N)N)C(C)C)C(C)C)CCCCCCC=CCCCC(C)(C(=O)N[C@H](C(=O)N2CCC[C@H]2C(N)=O)C(C)C)NC(=O)[C@H](CCC(N)=O)NC(=O)[C@H](CCCNC(=N)N)NC1=O` (stereo partly drawn) [IDP-H14-H2-01] (H-RVKLVNL[X1]FQALRQ[ξαMeNle(6-ylidene)]VP-NH2; staple 8-15; N-terminus and C-terminus assumed): the EC50 with NCI-H82, with NCI-H187 and in the experiment with NCI-H510A was roughly 7.5 µM each time. In addition, in the experiment with cancer cell lines, the “inhibition” value is “active”.

Turning to `CC(C)C[C@H](NC(=O)[C@H](CCCCN)NC(=O)[C@@H](NC(=O)[C@H](CCCNC(=N)N)NC(=O)[C@H](CCCNC(=N)N)NC(=O)[C@H](CCCNC(=N)N)NC(=O)[C@H](CCCNC(=N)N)NC(=O)[C@H](CCCNC(=N)N)NC(=O)[C@H](CCCNC(=N)N)NC(=O)[C@H](CCCNC(=N)N)NC(=O)[C@@H](N)CCCNC(=N)N)C(C)C)C(=O)N[C@H](C(=O)N[C@@H](CC(N)=O)C(=O)N[C@@H](CC(C)C)C(=O)NC1(C)CCCCCCC=CCCCC(C)(C(=O)N[C@H](C(=O)N2CCC[C@H]2C(N)=O)C(C)C)NC(=O)[C@H](CCC(=O)O)NC(=O)[C@H](CCCNC(=N)N)NC(=O)[C@H](CC(C)C)NC(=O)[C@H]([C@@H](C)O)NC(=O)[C@H](C)NC(=O)[C@H](Cc2ccccc2)NC1=O)C(C)C` (stereo partly drawn) [IDP-H14-CPP] (H-RRRRRRRRVKLVNL[X1]FATLRE[ξαMeNle(6-ylidene)]VP-NH2; staple 15-22; N-terminus and C-terminus assumed), the EC50 in the experiment with NCI-H82, in the experiment on NCI-H187 and in the experiment on NCI-H510A was roughly 7.5 µM each time.

As for `CC(C)C[C@H](NC(=O)[C@H](CCCCN)NC(=O)[C@@H](NC(=O)[C@@H](N)CCCNC(=N)N)C(C)C)C(=O)N[C@H](C(=O)N[C@@H](CC(N)=O)C(=O)N[C@@H](CC(C)C)C(=O)NC1(C)CCCCCCC=CCCCC(C)(C(=O)N[C@H](C(=O)N2CCC[C@H]2C(N)=O)C(C)C)NC(=O)[C@H](C)NC(=O)[C@H](CCCNC(=N)N)NC(=O)[C@H](CC(C)C)NC(=O)[C@H]([C@@H](C)O)NC(=O)[C@H](C)NC(=O)[C@H](Cc2ccccc2)NC1=O)C(C)C` (stereo partly drawn) [IDP-H14-A12] (H-RVKLVNL[X1]FATLRA[ξαMeNle(6-ylidene)]VP-NH2; staple 8-15; N-terminus and C-terminus assumed), the EC50 with NCI-H82, with NCI-H187 and in the experiment on NCI-H510A was roughly 7.5 µM in each case. Moreover, the “inhibition” value in the experiment on cancer cell lines is on record as “active”.

`CC(C)C[C@H](NC(=O)[C@H](CC(N)=O)NC(=O)[C@@H](NC(=O)[C@H](CC(C)C)NC(=O)[C@H](CCCCN)NC(=O)[C@@H](NC(=O)[C@H](CCCNC(=N)N)NC(=O)[C@H](CCCNC(=N)N)NC(=O)[C@H](CCCNC(=N)N)NC(=O)[C@H](CCCNC(=N)N)NC(=O)[C@H](CCCNC(=N)N)NC(=O)[C@H](CCCNC(=N)N)NC(=O)[C@H](CCCNC(=N)N)NC(=O)[C@@H](N)CCCNC(=N)N)C(C)C)C(C)C)C(=O)NCC(=O)N[C@@H](Cc1ccccc1)C(=O)N[C@@H](C)C(=O)N[C@H](C(=O)N[C@@H](CC(C)C)C(=O)N[C@@H](CCCNC(=N)N)C(=O)N[C@@H](CCC(=O)O)C(=O)N[C@@H](Cc1c[nH]cn1)C(=O)N[C@H](C(=O)N1CCC[C@H]1C(N)=O)C(C)C)[C@@H](C)O` [LH02] (H-RRRRRRRRVKLVNLGFATLREHVP-NH2; N-terminus and C-terminus assumed): the EC50 in the experiment on NCI-H82 is roughly 7 µM; in the experiment with NCI-H187, roughly 10 µM.
